# Entries after “also recorded” stand apart in the source; their conditions may differ.
# Key:
# rat glioma C6 cells = assay: C6 cell uptake of phosphonium cations determined by MALDI-TOF-MS; type: cell-based; conditions: for cell uptake / accumulation (in words): up to 90 min; for percent cell uptake: plateau at ~90 minute after incubation
# Description: MALDI-TOF Mass Spectrometry: MALIDI-TOF-MS experiments were performed on a Perseptive Voyager-DE RP Biospectrometry instrument (Framingham, Mass.). On the MALDI-TOF-MS target plate, 1 μL each of sample solution and 1 μL of the matrix were mixed. […] For each analysis, the laser spot randomly hit the sample to generate an averaged MALDI-TOF-MS spectrum. Three spectra were produced for each sample, and analyte to internal standard response ratios were averaged.
# C6 cells (0.5×10^6/50 μL) were incubated with 10 μL 100 μM stock phosphonium salts solution (5 μM final concentration) and 140 μL HEPES buffer from 10 to 90 min at room temperature. The cells were centrifuged (250×g) for three minutes and washed twice with cold PBS buffer at specified times. Cell pellets were then lysed with 150 μL cold spectral grade water, followed by freezing in dry ice. Right before the MALDI-TOF-MS analysis, the frozen cell solution was thawed and centrifuged at 12000×g for 5 min. An aliquot of 90 μL of cell lysate and 10 μL of 10 μM internal standard MeTPP were mixed together, and 1 μL of solution was subjected to MALDI-TOF-MS analysis. Samples collected from three independent cell lysates were prepared for each study and subjected for MALDI-TOF-MS analysis.
# Then they were diluted with C6 cell lysate (0.5×10^6 cells per 150 μL, these cells were not incubated with any phosphonium compound prior to lysis) to make various concentrations of compound and stored at 0° C. One micromolar MeTPP in 10 μL volume, which was used as internal standard, and 10 μL phosphonium cations with concentrations ranging from 0.1 μM-1.5 μM were mixed together thoroughly. Subsequently, 1 μL aliquot and 1 μL matrix αCHCA were deposited on the target plate and dried for MALDI-TOF-MS analysis. Triplicate samples were prepared and analyzed.
# C6 cells [1] = assay: C6 cell uptake of 3H-TPP by scintillation counting; type: cell-based, rat; conditions: 5 μM, 25° C., 90 min
# Description: Cell Uptake of ^3H-tetraphenylphosphonium (^3H-TPP): C6 cell uptake of ^3H-TPP was also performed for direct comparison with cell uptakes of TPP and FTPP determined through MALDI-TOF-MS. Briefly, 0.5×10^6 cells were incubated with 5 μM ^3H-TPP [^3H-TPP was spiked with TPP to make a final concentration of 12.21 GBq/mmol (0.33 Ci/mmol)] from 10 to 90 min in a 200 μL HEPES buffer at room temperature. Cell lysate was prepared using the same procedure as described in the Cell Uptake Studies of Phosphonium Cations section, and the radioactivity of cell lysate was counted. Triplicate samples were obtained for all uptake studies. Data were expressed as the accumulation of the amount of probe in each cell or percent cell uptake (fmols/cell, % cell uptake). ^3H analyses were performed with a Beckman LS-6500 liquid scintillation counter with Biosafe II scintillation fluid (Research Products International, Mount prospect, Ill.). The attenuation and quenching effects resulting from the cell lysate used in this experiment were determined to be negligible, and the disintegration per minute (dpm) was obtained by correcting for background activity and efficiency (69.3% for ^3H).
# C6 cells [2] = assay: Mitochondrial and plasma membrane potential dependent uptake in C6 cells (CCCP, valinomycin, high K+ HEPES buffer), MALDI-TOF-MS; type: cell-based, rat; conditions: for decrease in uptake on depolarization of the plasma membrane (high K+ vs low K+ buffer): 90 min exposure time; for effect of CCCP on uptake: CCCP at 1 μM concentration; for nature of uptake (membrane potential dependence): C6 cells, CCCP, valinomycin, high K+ buffer
# Description: K^+-ionophore valinomycin was dissolved in ethanol and also diluted with low K^+ buffer. Final concentrations of ethanol and DMSO were below 0.1%. Varying concentrations of CCCP and valinomycin were added to the 0.5×10^6 cells in low K^+ HEPES buffer 30 min prior to the start of the experiment. […] The viability and the integrity of the cells after treatment with inhibitors and high K^+ buffer were examined using Trypan blue.
compound,measurement,setting,value
"O=C(O)CCCC[P+](c1ccccc1)(c1ccccc1)c1ccccc1.[Br-] [CoTPP, (4-carboxybutyl)triphenyl-phosphonium bromide]",cell uptake / accumulation (in words),"rat glioma C6 cells; 5 μM, C6 cells",either does not accumulate or accumulates minimally
same,detection of compound in cell lysate by MALDI-TOF-MS,rat glioma C6 cells; C6 cell lysate after incubation with compound,could not be identified
"Cl.[Cl-].c1ccc([P+](Cc2ccccn2)(c2ccccc2)c2ccccc2)cc1 [PyTPP, triphenyl(2-pyridylmethyl)phosphonium chloride hydrochloride]",uptake compared with tetraphenylphosphonium analogs (TPP and FTPP),"rat glioma C6 cells; 5 μM, C6 cells",much lower uptake
"BrCCCC[P+](c1ccccc1)(c1ccccc1)c1ccccc1.[Br-] [BrTPP, (4-bromobutyl) triphenyl-phosphine bromide]",uptake compared with tetraphenylphosphonium analogs (TPP and FTPP),"rat glioma C6 cells; 5 μM, C6 cells",much lower uptake
^3H-tetraphenylphosphonium [^3H-TPP],time course of uptake by scintillation counting compared with MALDI-TOF-MS of TPP,C6 cells [1],almost identical pattern and the same levels of uptake
"[Br-].c1ccc([P+](c2ccccc2)(c2ccccc2)c2ccccc2)cc1 [TPP, tetraphenylphosphonium bromide, reference compound]",amount accumulated per cell,"rat glioma C6 cells; 5 μM, 10 mins post incubation",0.11 fmol TPP per cell
same,incubation time to maximum / steady-state uptake,"rat glioma C6 cells; 5 μM, C6 cells",60 min
same,percent cell uptake,"rat glioma C6 cells; 5 μM, C6 cells",11.44%
"CCCC[P+](c1ccccc1)(c1ccccc1)c1ccccc1.[Cl-] [BuTPP, butyltriphenylphosphonium chloride]",uptake compared with tetraphenylphosphonium analogs (TPP and FTPP),"rat glioma C6 cells; 5 μM, C6 cells",much lower uptake
"Fc1ccc([P+](c2ccccc2)(c2ccccc2)c2ccccc2)cc1 [FTPP, 4-Fluorophenyltriphenyl phosphonium]",accumulation relative to MeTPP,"rat glioma C6 cells; 5 μM, C6 cell culture",8 times
same,cell uptake relative to that of TPP,"rat glioma C6 cells; 5 μM, C6 cells",over 80%
same,percent cell uptake,"rat glioma C6 cells; 5 μM, C6 cells",9.33%
same,cell uptake / accumulation (in words),"rat glioma C6 cells; 5 μM, C6 cells",good cell uptake; also recorded: higher C6 cell uptake than both F4TPP and FBnTP
same,normalized uptake in presence of valinomycin,"C6 cells [2]; 5 μM probe, 10 μM valinomycin, low K+ HEPES buffer, one hour incubation",about 72.8±3.6%
same,normalized uptake in presence of CCCP,"C6 cells [2]; 5 μM probe, 50 μM CCCP, low K+ HEPES buffer, one hour incubation",about 27.3±2.3%
same,decrease in uptake on depolarization of the plasma membrane (high K+ vs low K+ buffer),C6 cells [2]; 5 μM probe,3.5 fold
same,effect of CCCP on uptake,C6 cells [2]; 5 μM probe,significantly inhibited
same,effect of valinomycin on uptake,"C6 cells [2]; 5 μM probe, valinomycin at 1 μM concentration",significantly inhibited
same,nature of uptake (membrane potential dependence),C6 cells [2],electrogenic and driven by the plasma and mitochondrial membrane potentials
"C[P+](c1ccccc1)(c1ccccc1)c1ccccc1.[Br-] [MeTPP, methyltriphenyl phosphonium bromide, reference compound]",percent cell uptake,"rat glioma C6 cells; 5 μM, C6 cells",1.06%
"Fc1ccc(C[P+](c2ccccc2)(c2ccccc2)c2ccccc2)cc1.[I-] [FBnTP, 4-fluorobenzyl-triphenylphosphonium iodide]",uptake compared with tetraphenylphosphonium analogs (TPP and FTPP),"rat glioma C6 cells; 5 μM, C6 cells",much lower uptake
same,decrease in uptake on depolarization of the plasma membrane (high K+ vs low K+ buffer),C6 cells [2]; 5 μM probe,1.5 fold
same,effect of CCCP on uptake,C6 cells [2]; 5 μM probe,can also be inhibited
same,nature of uptake (membrane potential dependence),C6 cells [2],electrogenic and driven by the plasma and mitochondrial membrane potentials
"Fc1ccc([P+](c2ccc(F)cc2)(c2ccc(F)cc2)c2ccc(F)cc2)cc1.[I-] [F4TPP, Tetra-4-fluorophenylphosphonium iodide]",decrease in uptake on depolarization of the plasma membrane (high K+ vs low K+ buffer),C6 cells [2]; 5 μM probe,3.0 fold
same,effect of CCCP on uptake,C6 cells [2]; 5 μM probe,can also be inhibited
same,nature of uptake (membrane potential dependence),C6 cells [2],electrogenic and driven by the plasma and mitochondrial membrane potentials
"CCCC[P+](CCCC)(CCCC)CCCC.[Br-] [TBuP, tetrabutylphosphonium bromide]",decreased cellular accumulation compared to TPP,"rat glioma C6 cells; 5 μM, C6 cells",~18 fold
same,cell uptake / accumulation (in words),"rat glioma C6 cells; 5 μM, C6 cells",lower cell uptake
same,cell uptake / accumulation (in words),"rat glioma C6 cells; 5 μM, C6 cells, listed as TBuPP",very low cell accumulaiton

# Source: patent publication US20070092907A1, “Methods of screening compound probes” (priority 2005, published 2007)
